Assay: storage stability test of eye drop in resin container (content by HPLC)
Format: physicochemical
Excerpt: The content of the present prostaglandin derivative refers to the ratio (%) of the concentration of the present prostaglandin derivative existing in the aqueous liquid preparation after a predetermined period of time to the original concentration of the present prostaglandin derivative existing in the aqueous liquid preparation when the prostaglandin-containing product is produced throughout the claims and the specification. For example, in the case where the present prostaglandin derivative is dissolved in water, it refers to the ratio (%) of the concentration of the present prostaglandin derivative existing in the aqueous solution after a predetermined period of time to the concentration of the present prostaglandin derivative dissolved in water.
A 5-ml eye drop resin container was obtained by injection blow molding of a propylene/ethylene random copolymer (containing an ethylene component in an amount of 3%).
The resin container obtained in the section of “2. Production of Resin Container” was subjected to a sterilization treatment with ethylene oxide gas (sterilization with ethylene oxide at a concentration of 20% (v/v), at a temperature of 40° C. and a relative humidity of 50% for 3 hours), and then, in the container, Eye drop 1 obtained in the section of “1. Preparation of Eye Drop” was charged. […] The concentration of the present compound in the container was measured by high performance liquid chromatography before the initiation of storage and after 30-day storage. The content of the present compound was calculated taking the concentration of the present compound at the time of initiation of storage as a standard (100%). Incidentally, each value in Table 1 is expressed as an average of three cases.
Except that the sterilization treatment with ethylene oxide gas was altered into a sterilization treatment with gamma rays (32 kGy), the content of the present compound was calculated in the same manner as in Example 1.
Except that the sterilization treatment with ethylene oxide gas was altered into a sterilization treatment with electron rays (23 kGy), the content of the present compound was calculated in the same manner as in Example 1.
Except that a container with no sterilization treatment was used as the container, the content of the present compound was calculated in the same manner as in Example 1.
Except that Eye drop 1 was altered into Eye drop 2, the content of latanoprost was calculated in the same manner as in Example 1.
Except that Eye drop 1 was altered into Eye drop 2 and the sterilization treatment with ethylene oxide gas was altered into a sterilization treatment with gamma rays (32 kGy), the content of latanoprost was calculated in the same manner as in Example 1. […]

[1] = sterilized container compared with container with no sterilization treatment

SMILES | content in the eye drop after a predetermined period of time (ethylene oxide gas sterilized container in comparison with gamma-ray or electron-ray sterilized container) | content in the eye drop after a predetermined period of time [1] | content in the eye drop (container sterilized with gamma rays, electron rays or ethylene oxide gas)
CC(C)OC(=O)CCC/C=C\C[C@@H]1[C@@H](/C=C/C(F)(F)COc2ccccc2)[C@H](O)C[C@@H]1O [present compound, 16-phenoxy-15-deoxy-15,15-difluoro-17,18,19,20-tetranor-prostaglandin F2α isopropyl ester] | higher | comparable | –
CC(C)OC(=O)CCC/C=C\C[C@@H]1[C@@H](CC[C@@H](O)CCc2ccccc2)[C@H](O)C[C@@H]1O [latanoprost, 13,14-dihydro-17-phenyl-18,19,20-trinor-prostaglandin F2α isopropyl ester] | – | comparable | did not decrease
